In data set [1] the test system is NHBE-ht/LT/ras cells. In words: In vitro growth inhibition, transformed NHBE cells. Type of data set: cell-based, human. As for the experimental part:
The K562, HL-60, MDA-MB231, and melanoma (CRL-11174) human cancer cell lines were purchased from ATCC (American Tissue Type Culture Collection, Manassas, Va., United States of America). HeLa, A549, Lewis Lung Carcinoma, MDA-MB231, and melanoma cells were grown in Dulbecco's Modified Eagle Medium (DMEM) (Hyclone, Logan, Utah, United States of America) supplemented with 10% fetal bovine serum (Hyclone, Logan, Utah, United States of America) and 50 μg/mL gentamicin sulfate (Invitrogen, Carlsbad, Calif., United States of America). The HL-60, K562, and Jurkat cell lines were grown in RPMI-1640 medium (Hyclone, Logan, Utah, United States of America) supplemented with 10% fetal bovine serum and 50 μg/mL gentamicin sulfate. The primary Normal Human Bronchial Epithelial (NHBE) cells and cells that were immortalized with human telomerase (ht) and large T antigen (LT) and transformed with mutated ras (ht/LT/ras cells) were cultured in Bronchial Epithelial Cell Basal Growth Medium (Cambrex, Walkersville, Md., United States of America) supplemented with 52 μg/mL bovine pituitary extract, 0.5 μg/mL hydrocortisone, […], 0.5 μg/mL epinephrine, 10 μg/mL transferrin, 5 μg/mL insulin, 0.1 ng/mL retinoic acid, 6.5 ng/mL triiodothyronine, 50 μg/mL gentamycin, and 50 ng/mL amphotericin-B (SingleQuots, Cambrex, Walkersville, Md., United States of America). All cell lines were maintained under 5% CO2 at 37° C.
All cell lines were plated at 1×10^5 cells/well in the appropriate medium. For suspension cells, increasing concentrations of 1 were added immediately to the medium, whereas, compound 1 treatment was initiated the following day for adherent cell lines. For dose-dependent studies, compound 1 was added in increasing concentrations for 36 hours. For time-dependent studies, 10 μM of compound 1 was added at time 0, 4, 8, 16, 24, or 36 hours. […]
(§1) Cells were collected 48 hours post-treatment, and cell number and viability were determined by trypan blue exclusion. […]

Data set [2] relates to K562 leukemia cells. In words: In vitro growth inhibition, K562. Type of data set: cell-based, human. The conditions noted are these: Homo sapiens, 50% of vehicle control cell growth. As for the experimental part:
(§2) The K562, HL-60, MDA-MB231, and melanoma (CRL-11174) human cancer cell lines were purchased from ATCC (American Tissue Type Culture Collection, Manassas, Va., United States of America). HeLa, A549, Lewis Lung Carcinoma, MDA-MB231, and melanoma cells were grown in Dulbecco's Modified Eagle Medium (DMEM) (Hyclone, Logan, Utah, United States of America) supplemented with 10% fetal bovine serum (Hyclone, Logan, Utah, United States of America) and 50 μg/mL gentamicin sulfate (Invitrogen, Carlsbad, Calif., United States of America). The HL-60, K562, and Jurkat cell lines were grown in RPMI-1640 medium (Hyclone, Logan, Utah, United States of America) supplemented with 10% fetal bovine serum and 50 μg/mL gentamicin sulfate. […]
as §1

The subject of data set [3] is LLC (Lewis Lung Carcinoma) cells. In words: In vitro growth inhibition, LLC. Type of data set: cell-based. Conditions: mouse LLC. As for the experimental part: as §2, §1
Data set [4] concerns +/+ ht/LT/ras fibroblasts. Description: Growth inhibition of wild-type transformed fibroblasts. The conditions noted are these: Mus musculus, Fibroblast, 48 hours. Type of data set: cell-based, mice. An excerpt: FIG. 6B is a bar graph showing the anti-proliferative effects of 3PO in fibroblasts from wild-type (+/+) or haplo-insufficient (+/−) PFKFB3 mice which were subsequently immortalized and transformed with human telomerase (ht), large T antigen (LT), and oncogenic H-ras^v12. Cell numbers (expressed as % of cell numbers of control cells) for transformed wild type (+/+) cells are shown in solid bars and numbers for transformed haplo-insufficient (+/−) cells are shown in striped bars. As indicated at the bottom of the graph, cells were incubated with vehicle or increasing amounts of 3PO (5, 10, 20, 30, 40, or 60 μM). Viable cells were counted after 48 hours. The bars represent the mean±STD of triplicate values from a representative experiment. * p-value<0.01 represents statistical difference between vehicle control and 3PO treated samples.
Cells were collected 48 hours post-treatment, and cell number and viability were determined by trypan blue exclusion. IC50 values were calculated as the compound 1 concentration needed for 50% of vehicle treated cell growth.
One of the most difficult challenges of new anti-neoplastic therapies is in situ target validation. To address this question, two different cell lines with varying levels of PFKFB3 expression were studied. […]

Data set [5] in a line: Toxicity studies, highest tolerated dose. Type of data set: in vivo, mice. Conditions: intraperitoneal (IP) injection in DMSO.
The nature of data set [6]: Echocardiographic examination of cardiac function. Type of data set: in vivo. The conditions noted are these: compound-treated mice, 0.07 mg/g i.p. The procedure: A difference in cardiac ^18F-2-DG uptake was also observed between the compound 1-treated and control group mice. Echocardiograms were performed as described in Dawn et al., Proc. Natl. Acad. Aci., U.S.A., 102, 3766-3771 (2005). […] Overall, it appears that 1 targets PFK2 activity in vivo resulting in a reduced glycolytic phenotype.

SMILES strings stand for the structures.

From patent US8557823B2, “Family of PFKFB3 inhibitors with anti-neoplastic activities” (Advanced Cancer Therapeutics, LLC, priority 2007, dated 2013) come the findings set out here.

Regarding `O=C(/C=C/c1cccnc1)c1ccncc1` [Compound 1, 3-(3-pyridinyl)-1-(4-pyridinyl)-2-propen-1-one], the IC50 in data set [1] (Homo sapiens, NHBE, 48 h) is 1.5 µM; in data set [2], 3.2 µM; in data set [3], 19 µM; in data set [4], 49 µM. For the same compound, in data set [1] (transformed NHBE cells), the “concentration at which treatment was completely cytotoxic” value was “approximately 10 μM”. Also, the “concentration at which treatment was cytostatic” value in data set [1] (transformed NHBE cells) is on record as “below 1 μM”. Besides, the “highest tolerated dose producing no phenotypic side effects” value in data set [5] is 0.07 mg/g. Moreover, the ejection fraction in data set [6] is 71%±6%.
